* marks the point of attachment. Acm = CC(=O)NC*

Consider three substances from US6218112A, “Optimization of gene delivery and gene delivery system” (Cobra Therapeutics Limited, priority 1997, dated 2001).

The test system of assay [1] is plasmid nucleic acid pRSVLuc. The experiment in a line: Surface plasmon resonance (BIAcore) binding kinetics of peptides/conjugates to immobilized biotinylated plasmid DNA. The following applies: for ka: apparent rate constant for association; for ka / kd: SPR, PBS, 25° C.; for kd: apparent rate constant for dissociation. How it is done: In the examples described below, SPR was detected using the BIAcore system. This machine contained an SPR detector and an integrated microfluidic cartridge which is engineered such that an analyte solution (cationic peptide) is continuously passed over the sensor chip. The sensor chip consists of a glass plate coated with a thin film of gold covered in a layer of carboyxymethyl dextran. The chip used has a dextran layer to which streptavidin is covalently attached. The chip is prepared for use by adding biotinylated nucleic acid which will be bound to the chip via the streptavidin-biotin interaction, and the same chip is used in a series of experiments.
As material binds to the immobilized nucleic acid molecule on the sensor chip, the SPR angle of plane polarized light shining on the surface of the chip is monitored by the detector. Changes in angle are defined as resonance units (RU) and data are collected every second. Background effects are detected and automatically subtracted by the use of a control flow cell in line with the nucleic acid flow cell.
A typical sensorgram has three phases: an association phase, an equilibrium phase and a dissociation phase (see FIG. 1). The rise in signal occurs as more peptide binds to the immobilized plasmid DNA until equilibrium conditions are reached. The height of the peak is directly proportional to the mass of peptide bound. If the flow continues with buffer containing no peptide, peptide begins to dissociate from the complex and the resonance signal is reduced. The sensorgram can be used to compute apparent rate constants for each of the three individual processes.
(1) dC/dt=ka [PF ] [Pmax -PB ]-kd [PB ]
Measurement of Binding Kinetics by Surface Plasmon Resonance
A 6 kilobase (kb) plasmid DNA (pRSVLuc) was biotinylated using photoactivatable biotin (Pierce and Warriner) as per manufacturer's instructions.
A sensor chip with immobilized streptavidin (SA5) was conditioned following manufacturer's instructions, i.e., three one-minute injections of 1 M NaCl: 50 mM NaOH followed by one 1 min injection of 0.5% SDS. Flow rate on the BlAcore sensing device was 20 μl per min, running buffer was phosphate buffered saline (PBS). Flow path was flow cells 1 and 2.
The flow path was switched to flow cell 2 only and the flow rate was reduced to 10 μl per minute. Biotinylated plasmid at a concentration of […] in 0.5M NaCl was injected for 3 mins.
Phosphate buffered saline was used as running buffer at a flow rate of 20 μl per minute. The flow path was over flow cells 1 and 2. Flow cell 1 was used as a reference cell. The experiments were carried out at a temperature of 25° C.
Peptides were injected at various concentrations for three minutes. The injection was followed by a 5 min dissociation phase before the injection port was washed. The sensor chip was regenerated by the injection of 2M NaCl for 1 min. If necessary, this injection was repeated to bring the response back down to baseline before the next peptide sample was injected.
The data was analysed using the methods described in the handbook (BIAevaluation 2.1. Software Handbook, Pharmacia Biosensor AB, Uppsala, Sweden).
Essentially the plots were evaluated as follows: The dissociation constant, kd, was determined first. A curve or family of curves (same NBC at different concentrations) were plotted as response (Y) versus time as Ln (Yo/Y) versus time. In the area where the Ln(Yo/Y) curve was linear, a fit of the default dissociation model [AB]=[A]+[B] was made. The association constant, ka, was then calculated by fitting the related association model on that part of the association curve where a plot of In(abs(dY/dt) versus time was linear. KD were approximated by dividing the calculated kd with the calculated ka.

Assay [2] has as its system KLN-205 squamous epithelial syngenic tumour cells. In words: In vivo transfection of KLN-205 tumours in DBA2 mice by local injection of peptide/plasmid complexes (nitroreductase immunostaining). Set-up: species or system mouse. The conditions noted are these: 0.5 μg peptide/μg DNA, intratumoural injection. The protocol: A representative in via cell transfection system is transfection of tumor cells using a murine carcinoma model.
The murine carcinoma model DBA2 containing the squamous epithelial syngenic tumour cell line KLN-205 was prepared as described in the Examples. A transfecting complex was prepared using a solution of plasmid DNA encoding a reporter gene or, for example, nitroreductase and a selected NBC peptide 0.5 μg peptide/μg DNA, as described herein. Where desired, a conjugate peptide was added to the transfecting complex, at a concentration of 0.1-0.3 μg […] peptide/μg DNA.
Transfection efficiency may be determined in a number of ways, including assessing the effect of the reporter gene on the target tissue, or by quantitating the gene product. Below, tissues samples were obtained and nitroreductase gene expression was ascertained via staining of tissue sections.
The ability to transfect tumor cells in vivo in mice was tested using plasmid nucleic acid carrying the nitroreductase reporter gene condensed on each of the following peptides: NBC15, NBC8, NBC9, NBC11, NBC7.
DBA2--male mice, aged 5-10 weeks were injected subcutaneously in each flank with a squamous epithelial syngenic tumour cell line KLN-205. The cell line was grown up in 175 ml T-flasks in standard EMEM medium containing 10% foetal calf serum. When the cells reached a density of 4×10^6 they were suspended by a standard trypsinization technique, washed in PBS and diluted to a final concentration of […].
The anaesthetic was Enflurane (Alynane; Anaquest, Ltd., Windlesham, Surrey UK): Ketamine (10% Ketaset, Willows Francis Veterinary, Cramley, West Sussex, UK); Rompun (2%, Bayer UK, Ltd., Suffolk, UK). For 10 ml anaesthetic mixture: 8.5 ml PBS; 1 ml Ketamine; 0.5 ml Rompun. Each animal was injected intra-peritoneally with 200 μl/animal using 1 ml syringe with 25 gauge needle. Once anaesthetized, the tumour is manipulated between the fingers lifting it slightly away from the animal's body and at the same time apply minimum pressure to the tumour. Using a 0.5 ml insulin needle the formulated delivery vehicle (a plasmid containing the E. coli nitroreductase gene condensed on a peptide at a ratio of 0.5 μg peptide/μg DNA) to be injected is taken up and the tumour is injected horizontally trying to avoid any visible blood vessels and necrotic or abnormal tissue. Daily monitoring is continued until the experiment is terminated.
7μ sections of frozen tumour tissue are prepared using standard methods and a Cryostat and air dried. Sections are fixed with freshly prepared 4% PFA/PBS for 30 mins at room temperature and then washed twice with 0.01% Tween-20/PBS 5 mins each wash. Sections are then immersed in 0.25% hydrogen peroxide/PBS, at room temperature (20C.) for 30 mins, and then washed three times in 0.01% Tween 20/PBS for 5 mins each wash. Sections are then permeabilised by treatment with ice cold 0.1 % TRITON X-100 for 5 mins, followed by a further two washes in 0.01% Tween-20/PBS 5mins each wash. The sections are then blocked with 5% NGS/PBS 60mins at room temperature in a wetbox. After decanting the blocking solution, 0.5 ml diluted antiserum/slide (1:400 in 2.5% NGS) is added and the sections incubated for 60 mins at room temperature. Slides are then washed three times in 0.01% Tween-20/PBS 5 mins each wash. Secondary antibody (0.5 ml) from ABC Elite Vector stain kit is added as follows and incubated 30 mins at room temperature in a wetbox.
The tumour is a murine syngenic squamous carcinoma produced by subcutaneous injection of KLN205 cells. When the tumours were approximately 4 mm in diameter they were injected with 20 μl of plasmid DNA formulated with the NBC15 peptide. After 48 h the tumours were excised and sectioned by standard histological techniques and immunostained for expression of the transgene (E. coli nitroreductase). […] In this case the tumours were injected with the same plasmid formulated in 0.5 μg NBC9 peptide/μg DNA.

Another assay deals with Jurkat cell line. The experiment in a line: In vitro transfection with pRSVLuc (luciferase) condensed on peptides. It is filed as cell-based. The conditions noted are these: peptide 2 μg/μg plasmid DNA, luciferase after 24 h, FIG. 7. The protocol: After incubation the cells are lysed and are assayed for gene expression. In the case of the luciferase reporter gene, luciferin and ATP are added to lysed cells and the light emitted is measured with a luminometer (see deWet et al., supra).
Cell lines such as Jurkat and K562 grow in suspension and can be transfected and the level of transgene expression (luciferase activity) determined b) the following method. Cells are harvested on the day of assay by centrifugation at 1200 rpm for 5 mins at room temperature. The cell pellet is resuspended in phosphate buffered saline and re-centrifuged. This operation is performed twice. […] The cells are then aliquoted into tubes and 0.75 ml of RPMI medium added, followed by 0.04-0.08 ml of 100 mM Chloroquine and finally 0.25 ml of DNA-complex solution. The transfection is then allowed to proceed by incubating the cells at 37° C. for 4 h. After this time the cells are harvested by centrifugation at 2000 rpm. The cells are then suspended in 1 ml of RPMI medium and re-centrifuged. Finally the cells are suspended in 0.5 ml RPMI medium containing 10% foetal bovine serum. Each 0.5 ml of transfected cell suspension is transferred to a well of a 12 well plastic culture plate containing 1.5 ml of RPMI 10% FBS. The original transfection tube is rinsed with a further 1 ml of medium and the wash transferred to the culture dish making a final volume of 3 ml. The culture plate is then incubated at 37° C. for 24-90 h in an atmosphere of 5% CO2. The contents of each well in the culture dish are transferred to centrifuge tubes and the cells collected by centrifugation at 13000 rpm. The pellet is resuspended in 0.12 ml of Lysis Buffer (100 mM sodium phosphate, pH 7.8; 8 mM magnesium chloride, 1 mM EDTA; 1% Triton X-100 and 15% glycerol) and agitated with a pipette. The lysate is centrifuged at 13000 rpm for 1 min and the supernatant collected. 80 μl of the supernatant are transferred to a luminometer tube. The luciferase activity is then assayed using a Berthold Lumat L9501 luminometer. The assay buffer used is Lysis Buffer containing 10 mM Luciferin and 100 mM ATP. Light produced by the luciferase is integrated over 4s and is described as relative light units (RLU). The data are converted to RLU/ml of lysate, RLU/cell or RLU/mg protein (protein concentration of the lysate having been determined in this case by the BioRAD Lowry assay.
In order to compare the relative efficiency of transfection of complexes composed of different NBC condensation peptides or poly-L-lysine, pRSVLuc DNA at a concentration of 100 μg/ml was condensed using peptide at a ratio of 2 μg/μg plasmid DNA as described herein with the following deviation: prior to addition to the cells (Jurkat cell line) the complexes were diluted to 20 μg/ml with 10% PEG 10 000; 37 mM sodium chloride; 25 mM sodium phosphate, pH 7.4. The cells were assayed for luciferase after 24 h.

With “H-TRPAWRRAKRRAARRCGVSARRAARRAWRRE-OH [NBC7]”, in assay [1], the ka worked out at 3670 M⁻¹ s⁻¹ and the kd was found to be 0.000133 s⁻¹. For the same substance, the association reaction entry in assay [1] (shape of association kinetics) is listed as “clear biphasic kinetics”. The “ranking by numbers of transfected tumor cells (most to least efficient)” value in assay [2] was “NBC15>NBC8, NBC9, NBC11>NBC7>>>poly-lysine”.
With “NH2-KKSPKKAKKPAAKKSPKKAKKPAAKKSPKKAKKPAYC(Acm)-COOH (H-KKSPKKAKKPAAKKSPKKAKKPAAKKSPKKAKKPAYC(Acm)-OH; SMILES CC(=O)NCSC[C@H](NC(=O)[C@H](Cc1ccc(O)cc1)NC(=O)[C@H](C)NC(=O)[C@@H]1CCCN1C(=O)[C@H](CCCCN)NC(=O)[C@H](CCCCN)NC(=O)[C@H](C)NC(=O)[C@H](CCCCN)NC(=O)[C@H](CCCCN)NC(=O)[C@@H]1CCCN1C(=O)[C@H](CO)NC(=O)[C@H](CCCCN)NC(=O)[C@H](CCCCN)NC(=O)[C@H](C)NC(=O)[C@H](C)NC(=O)[C@@H]1CCCN1C(=O)[C@H](CCCCN)NC(=O)[C@H](CCCCN)NC(=O)[C@H](C)NC(=O)[C@H](CCCCN)NC(=O)[C@H](CCCCN)NC(=O)[C@@H]1CCCN1C(=O)[C@H](CO)NC(=O)[C@H](CCCCN)NC(=O)[C@H](CCCCN)NC(=O)[C@H](C)NC(=O)[C@H](C)NC(=O)[C@@H]1CCCN1C(=O)[C@H](CCCCN)NC(=O)[C@H](CCCCN)NC(=O)[C@H](C)NC(=O)[C@H](CCCCN)NC(=O)[C@H](CCCCN)NC(=O)[C@@H]1CCCN1C(=O)[C@H](CO)NC(=O)[C@H](CCCCN)NC(=O)[C@@H](N)CCCCN)C(=O)O) [NBC13]”, the “rank in order of relative transfection efficiency (most to least efficient)” value with Jurkat cell line was “NBC11>NBC13>NBC8>>NBC15>>>polylysine”.
Turning to “NH2-TKKSPKKAKKPAAKKSPKKAKKPAAKKSPKKAKKPAAC(Acm)-COOH (H-TKKSPKKAKKPAAKKSPKKAKKPAAKKSPKKAKKPAAC(Acm)-OH; SMILES CC(=O)NCSC[C@H](NC(=O)[C@H](C)NC(=O)[C@H](C)NC(=O)[C@@H]1CCCN1C(=O)[C@H](CCCCN)NC(=O)[C@H](CCCCN)NC(=O)[C@H](C)NC(=O)[C@H](CCCCN)NC(=O)[C@H](CCCCN)NC(=O)[C@@H]1CCCN1C(=O)[C@H](CO)NC(=O)[C@H](CCCCN)NC(=O)[C@H](CCCCN)NC(=O)[C@H](C)NC(=O)[C@H](C)NC(=O)[C@@H]1CCCN1C(=O)[C@H](CCCCN)NC(=O)[C@H](CCCCN)NC(=O)[C@H](C)NC(=O)[C@H](CCCCN)NC(=O)[C@H](CCCCN)NC(=O)[C@@H]1CCCN1C(=O)[C@H](CO)NC(=O)[C@H](CCCCN)NC(=O)[C@H](CCCCN)NC(=O)[C@H](C)NC(=O)[C@H](C)NC(=O)[C@@H]1CCCN1C(=O)[C@H](CCCCN)NC(=O)[C@H](CCCCN)NC(=O)[C@H](C)NC(=O)[C@H](CCCCN)NC(=O)[C@H](CCCCN)NC(=O)[C@@H]1CCCN1C(=O)[C@H](CO)NC(=O)[C@H](CCCCN)NC(=O)[C@H](CCCCN)NC(=O)[C@@H](N)[C@@H](C)O)C(=O)O) [NBC9]”, in assay [1], the ka stood at 97800 M⁻¹ s⁻¹ and the kd was determined as 0.00293 s⁻¹. Also, the “ranking by numbers of transfected tumor cells (most to least efficient)” value in assay [2] was “NBC15>NBC8, NBC9, NBC11>NBC7>>>poly-lysine”. Also, in assay [2] (48 h, nitroreductase immunostaining), the “number of transfected tumor cells / level of transfection” value is “Although transfection is evident the level of transfection is noticeably lower”.
